From patent US20190127359A1, “Compounds & Methods for the Enhanced Degradation of Targeted Proteins & Other Polypeptides by an E3 Ubiquitin Ligase” (YALE UNIVERSITY, priority 2012, published 2019)
Read-outs that look alike come from different tables or passages of the source.

Key:
[1] = molecular target: T1, VHL (Homo sapiens, UniProt P40337); assay: WaterLOGSY and saturation transfer difference (STD) NMR binding; settings: FIG. 2
[2] = molecular target: T1, VHL; assay: Fluorescence polarization competition assay (HIF-1α peptide FP displacement)

Row | Compound | IC50 ([2]; IC50 (μM) 10% DMSO, 10% DMSO) | IC50 ([2]; IC50 (μM) 1% DMSO, 1% DMSO) | other results
1 | O=C(O)[C@@H]1C[C@@H](O)CN1 [L-Hyp] | – | – | binding to VHL by WaterLOGSY NMR spectroscopy [1]: not
2 | Cc1nc(S)sc1CC(=O)N1C[C@H](O)C[C@H]1C(=O)NCc1ccc(Cl)cc1 [VL106] | > 1000 µM | – | –
3 | Cc1cc(CC(=O)N2C[C@H](O)C[C@H]2C(=O)NCc2ccc(-c3ocnc3C)cc2)on1 [VL117] | 5 µM | 13 µM | –
4 | Cc1cc(CC(=O)N2C[C@H](O)C[C@H]2C(=O)NCc2ccc(N(C)C)cc2)on1 [VL018] | 280 µM | – | –
5 | Cc1cc(CC(=O)N2C[C@H](O)C[C@H]2C(=O)NCCN2CCOCC2)on1 [VL015] | > 1000 µM | – | –
6 | Cc1cc(CC(=O)N2C[C@H](O)C[C@H]2C(=O)N[C@@H](CO)c2ccc(Cl)cc2)on1 [VL161] | 36.4 µM | 35 µM | –
7 | Cc1cc(CC(=O)N2C[C@H](O)C[C@H]2C(=O)N[C@@H](C)c2ccccc2)on1 [VL032] | 639 µM | – | –
8 | Cc1cc(CC(=O)N2C[C@H](O)C[C@H]2C(=O)NCc2ccc(C(=O)OCC3CC3)cc2)on1 [VL091] | 23 µM | – | –
9 | CCCNC(=O)OC[C@H](NC(=O)[C@@H]1C[C@@H](O)CN1C(=O)Cc1cc(C)no1)c1ccc(Cl)cc1 [VL164] | 72.9 µM | 40 µM | –
10 | Cc1cc(CC(=O)N2C[C@H](O)C[C@H]2C(=O)NCc2cccnc2)on1 [VL036] | 744 µM | – | –
11 | Cc1cc(CC(=O)N2C[C@H](O)C[C@H]2C(=O)NCc2ccc(C)o2)on1 [VL044] | 286 µM | – | –
12 | Cc1cc(CC(=O)N2C[C@H](O)C[C@H]2C(=O)NCc2ccc(-c3ccn[nH]3)cc2)on1 [VL160] | 12.1 µM | 9 µM | –
13 | Cc1cc(CC(=O)N2C[C@H](O)C[C@H]2C(=O)NCCc2ccc(O)cc2)on1 [VL002, (2S,4R)-4-hydroxy-N-(4-hydroxyphenethyl)-1-(2-(3-methylisoxazol-5-yl)acetyl)pyrrolidine-2-carboxamide] | 241 µM | – | IC50 ([2]; read-out: IC50 (μM) 1% DMSO, 1% DMSO): 120 µM
14 | Cc1ccc(S(=O)(=O)N2C[C@H](O)C[C@H]2C(=O)NCCc2ccc(O)cc2)cc1 [VL003] | > 1000 µM | – | –
15 | Cc1cc(CC(=O)N2C[C@H](O)C[C@H]2C(=O)NCc2ccccn2)on1 [VL019] | 451 µM | – | –
16 | Cc1ccc(S(=O)(=O)N2C[C@H](O)C[C@H]2C(=O)Nc2ccc(Br)cc2F)cc1 [VL009] | – | – | IC50 (μM) 10% DMSO ([2]; 10% DMSO): Inactive
17 | O=C(NCCc1ccc(O)cc1)[C@@H]1C[C@@H](O)CN1C(=O)Cc1nnn[nH]1 [VL005] | > 1000 µM | – | –
18 | CC(C)[Si](c1cn(CC(=O)N2C[C@H](O)C[C@H]2C(=O)NCc2ccc(-c3ccccc3)cc2)nn1)(C(C)C)C(C)C [VL135] | – | > 1000 µM | IC50 (μM) 10% DMSO ([2]; 10% DMSO): Inactive
19 | Cc1cc(CC(=O)N2C[C@H](O)C[C@H]2C(=O)N2CCc3ccccc3C2)on1 [VL039] | > 1000 µM | – | –
20 | Cc1cc(CC(=O)N2C[C@H](O)C[C@H]2C(=O)N[C@H](CO)c2ccc(Cl)cc2)on1 [VL162] | 235 µM | – | –
21 | CNC(=O)c1cc(Oc2ccc(NC(=O)[C@@H]3C[C@@H](O)CN3C(=O)Cc3cc(C)no3)cc2)ccn1 [VL027] | > 1000 µM | – | –
22 | Cc1cc(CCN2C[C@H](O)C[C@H]2C(=O)NCc2ccc(-c3ccccc3)cc2)on1 [VL145] | > 1000 µM | > 1000 µM | –
23 | Cc1cc(CC(=O)N2C[C@H](O)C[C@H]2C(=O)NCc2ccc(C(=O)C(C)C)cc2)on1 [VL089] | 40.8 µM | – | –
24 | Cc1cc(CC(=O)N2C[C@H](O)C[C@H]2C(=O)NCc2cccc3ccccc23)on1 [VL086] | 168 µM | – | –
25 | Cc1cc(CC(=O)N2C[C@H](O)C[C@H]2C(=O)NCc2ccc(Cl)c(C(F)(F)F)c2)on1 [VL023] | 589 µM | – | –
26 | O=C(NCc1ccc(-c2ccccc2)cc1)[C@@H]1C[C@@H](O)CN1Cc1ccccc1Cl [VL143] | > 1000 µM | > 1000 µM | –
27 | CC(=O)O[C@@H]1C[C@@H](C(=O)NCc2ccc(-c3cnco3)cc2)N(C(=O)Cc2cc(C)no2)C1 [VL114] | – | – | IC50 (μM) 1% DMSO ([2]; 1% DMSO): Inactive; IC50 (μM) 10% DMSO ([2]; 10% DMSO): Inactive
28 | Cc1cc(CC(=O)N2C[C@H](O)C[C@H]2C(=O)NCc2cccc(-c3cc[nH]c3)c2)on1 [VL134] | 48.1 µM | 54 µM | –
29 | Cc1cc(CC(=O)N2C[C@H](O)C[C@H]2C(=O)N[C@@H](C)c2ccc([N+](=O)[O-])cc2)on1 [VL049] | 15.1 µM | – | –

The next lines start with results.

Row | IC50 ([2]; IC50 (μM) 10% DMSO, 10% DMSO) | IC50 ([2]; IC50 (μM) 1% DMSO, 1% DMSO) | Compound | other results
30 | > 1000 µM | – | CS(=O)(=O)c1ccc(CC(=O)N2C[C@H](O)C[C@H]2C(=O)NCc2ccc(Cl)cc2)cc1 [VL058] | –
31 | 47.7 µM | 73 µM | O=C(NCc1ccc(Cl)cc1)[C@@H]1C[C@@H](O)CN1C(=O)c1ccc2cn[nH]c2c1 [VL127] | –
32 | 990 µM | 670 µM | O=C(NCc1ccc(Cl)cc1)[C@@H]1C[C@@H](O)CN1C(=O)c1cccc2[nH]ccc12 [VL124] | –
33 | 939 µM | – | N#Cc1ccc(CC(=O)N2C[C@H](O)C[C@H]2C(=O)NCc2ccc(Cl)cc2)cc1 [VL056] | –
34 | 10.4 µM | – | Cc1c(N)cccc1C(=O)N1C[C@H](O)C[C@H]1C(=O)NCc1ccc(Cl)cc1 [VL071] | –
35 | 74.2 µM | – | O=C(NCc1ccc(Cl)cc1)[C@@H]1C[C@@H](O)CN1C(=O)c1ccccc1[N+](=O)[O-] [VL065] | –
36 | 8.9 µM | – | N#Cc1cccc(C(=O)N2C[C@H](O)C[C@H]2C(=O)NCc2ccc(Cl)cc2)c1 [VL077] | –
37 | 102 µM | 220 µM | O=C(NCc1ccc(Cl)cc1)[C@@H]1C[C@@H](O)CN1C(=O)c1cccc(-c2cnco2)c1 [VL122] | –
38 | 140 µM | – | O=C(NCc1ccc(Cl)cc1)[C@@H]1C[C@@H](O)CN1C(=O)c1cccc(Cl)c1 [VL054] | –
39 | > 1000 µM | > 1000 µM | O=C(NCc1ccc(Cl)cc1)[C@@H]1C[C@@H](O)CN1C(=O)Cc1c[nH]cn1 [VL120] | –
40 | 39 µM | 46 µM | O=C(NCc1ccc(Cl)cc1)[C@@H]1C[C@@H](O)CN1C(=O)c1ccccc1Cl [VL073] | –
41 | 66.9 µM | 54 µM | Cc1cc(CC(=O)N2C[C@H](O)C[C@H]2C(=O)NCc2ccc(-c3cccnc3)cc2)on1 [VL159] | –
42 | 29 µM | – | NS(=O)(=O)c1ccc(C(=O)N2C[C@H](O)C[C@H]2C(=O)NCc2ccc(Cl)cc2)cc1 [VL082] | –
43 | 110 µM | – | O=C(NCc1ccc(Cl)cc1)[C@@H]1C[C@@H](O)CN1C(=O)c1ccccc1 [VL064] | –
44 | 63.6 µM | – | O=C(NCc1ccc(Cl)cc1)[C@@H]1C[C@@H](O)CN1C(=O)c1cncc(Br)c1 [VL100] | –
45 | 42.9 µM | – | O=C(NCc1ccc(Cl)cc1)[C@@H]1C[C@@H](O)CN1C(=O)c1ccc(Cl)cc1 [VL074] | –
46 | > 1000 µM | – | O=C(NCc1ccc(Cl)cc1)[C@@H]1C[C@@H](O)CN1C(=O)Cc1cccnc1 [VL105] | –
47 | 60.2 µM | – | O=C(NCc1ccc(Cl)cc1)[C@@H]1C[C@@H](O)CN1C(=O)c1cccc(C(F)(F)F)c1 [VL078] | –
48 | 16 µM | 41 µM | Cc1cc(CC(=O)N2C[C@H](O)C[C@H]2C(=O)NCc2ccc(-c3ccncc3)cc2)on1 [VL150] | –
49 | 32.5 µM | – | O=C(NCc1ccc(Cl)cc1)[C@@H]1C[C@@H](O)CN1C(=O)c1ccncc1 [VL096] | –
50 | 372 µM | 360 µM | Cn1cc(CC(=O)N2C[C@H](O)C[C@H]2C(=O)NCc2ccc(Cl)cc2)cn1 [VL157] | –
51 | 23.8 µM | 113 µM | CCOC(=O)Cn1cc(-c2cccc(C(=O)N3C[C@H](O)C[C@H]3C(=O)NCc3ccc(Cl)cc3)c2)nn1 [VL148] | –
